Patent US20230053540A1, “TREATMENT OF LIVER INJURY” (Massachusetts Institute of Technology, priority 2019, published 2023)

Tested on: hepatocytes
Test: Seq-Well scRNA-Seq of hepatocytes after APAP overdose (signature scores, DEG vs untreated)
Type: in vivo, mouse
[1] = cluster A6, DEG between treatment (APAP and PH)

CC(=O)Nc1ccc(O)cc1 [APAP, acetaminophen]
Ugdh avg_logFC (cluster A6 (APAP 6 hr)): 0.5563 | Ugdh pct.1 (cluster A6 (APAP 6 hr)): 0.721 | Vcam1 avg_logFC (cluster A6 (APAP 6 hr)): 0.4376 | Vcam1 pct.1 (cluster A6 (APAP 6 hr)): 0.134 | Vsig4 avg_logFC (cluster A6 (APAP 6 hr)): 0.4542 | Vsig4 pct.1 (cluster A6 (APAP 6 hr)): 0.117 | Wfdc17 avg_logFC (cluster A6 (APAP 6 hr)): 0.4173 | Wfdc17 pct.1 (cluster A6 (APAP 6 hr)): 0.177 | Xbp1 avg_logFC (cluster A6 (APAP 6 hr)): 0.4407 | Xbp1 pct.1 (cluster A6 (APAP 6 hr)): 0.692 | Ywhag avg_logFC (cluster A6 (APAP 6 hr)): 0.4649 | Ywhag pct.1 (cluster A6 (APAP 6 hr)): 0.518 | mmu-mir-6240 avg_logFC (cluster A6 (APAP 6 hr)): 1.083 | mmu-mir-6240 pct.1 (cluster A6 (APAP 6 hr)): 0.413 | avg_logFC 1700017B05Rik [1]: 0.3277 | avg_logFC 2010003K11Rik [1]: 0.5729 | avg_logFC AA474408 [1]: 0.2664 | avg_logFC Aass [1]: 0.4071 | avg_logFC Abca1 [1]: 0.6539 | avg_logFC Abhd2 [1]: 0.4149 | avg_logFC Actb [1]: 1.052 | avg_logFC Aff4 [1]: 0.5363 | avg_logFC Agpat9 [1]: 0.3049 | avg_logFC Alb [1]: 0.3749 | avg_logFC Apoa4 [1]: 1.166 | avg_logFC Apob [1]: 0.4802 | avg_logFC App [1]: 0.3381 | avg_logFC Arhgef12 [1]: 0.4856 | avg_logFC Asl [1]: 0.4135 | avg_logFC B4galt5 [1]: 0.4239 | avg_logFC Bach1 [1]: 0.7686 | avg_logFC Bcl2l1 [1]: 0.7415 | avg_logFC Bcl3 [1]: 0.2741 | avg_logFC Btg1 [1]: 0.3984 | avg_logFC Btg2 [1]: 0.7669 | avg_logFC C3 [1]: 0.2785 | avg_logFC C230081A13Rik [1]: 0.4184 | avg_logFC Cars [1]: 0.3067 | avg_logFC Ccl6 [1]: 0.7868 | avg_logFC Cdkn1a [1]: 1.252 | avg_logFC Cers6 [1]: 0.5071 | avg_logFC Chic2 [1]: 0.3964 | avg_logFC Chka [1]: 1.403 | avg_logFC Cidec [1]: 0.3067 | avg_logFC Cldn14 [1]: 0.3695 | avg_logFC Clec4f [1]: 1.124 | avg_logFC Cltc [1]: 0.6852 | avg_logFC Creb3l2 [1]: 0.3971 | avg_logFC Ctsl [1]: 0.5128 | avg_logFC Cxadr [1]: 0.6568 | avg_logFC Cyp4a14 [1]: 0.3334 | avg_logFC D10Wsu102e [1]: 0.5698 | avg_logFC Ddx3x [1]: 0.5612 | avg_logFC Ddx5 [1]: 0.5397 | avg_logFC Ddx21 [1]: 0.6559 | avg_logFC Dgkd [1]: 0.3584 | avg_logFC Dkc1 [1]: 0.3054 | avg_logFC Dot1l [1]: 0.3853 | avg_logFC Dusp6 [1]: 0.5087 | avg_logFC Dusp16 [1]: 0.4273 | avg_logFC Eaf1 [1]: 0.5072 | avg_logFC Eef2 [1]: 0.4059 | avg_logFC Efhd2 [1]: 0.5766 | avg_logFC Egr1 [1]: 0.537 | avg_logFC Eif1a [1]: 0.7228 | avg_logFC Eif4g2 [1]: 0.4126 | avg_logFC Eif5 [1]: 0.4809 | avg_logFC Epas1 [1]: 0.7138 | avg_logFC Epb4.1 [1]: 0.4678 | avg_logFC Errfi1 [1]: 0.3421 | avg_logFC Etf1 [1]: 0.4526 | avg_logFC Ets2 [1]: 0.6806 | avg_logFC Fam107b [1]: 0.4162 | avg_logFC Fam134b [1]: 0.8152 | avg_logFC Fga [1]: 0.501 | avg_logFC Fgb [1]: 0.4774 | avg_logFC Fgg [1]: 0.4751 | avg_logFC Fkbp5 [1]: 0.4567 | avg_logFC Fndc3b [1]: 0.3496 | avg_logFC Gclc [1]: 1.802 | avg_logFC Gcnt2 [1]: 0.5038 | avg_logFC Gjb2 [1]: 0.5038 | avg_logFC Gm15564 [1]: 0.7861 | avg_logFC Gm20594 [1]: 0.4405 | avg_logFC Gm24245 [1]: 0.4984 | avg_logFC Gm26917 [1]: 0.4239 | avg_logFC Gm26924 [1]: 0.7269 | avg_logFC Gn12 [1]: 0.358 | avg_logFC Gnl3 [1]: 0.4902 | avg_logFC Gpt2 [1]: 0.4695 | avg_logFC Gsta1 [1]: 0.4089 | avg_logFC Gtpbp4 [1]: 0.4623 | avg_logFC H3f3b [1]: 0.7184 | avg_logFC Hbb-bs [1]: 2.586 | avg_logFC Heatr1 [1]: 0.3815 | avg_logFC Hif1a [1]: 0.4876 | avg_logFC Hilpda [1]: 0.7803 | avg_logFC Hmox1 [1]: 1.34 | avg_logFC Hnf4a [1]: 0.6962 | avg_logFC Hnrnpdl [1]: 0.3993 | avg_logFC Hsd17b13 [1]: 0.4804 | avg_logFC Hspb8 [1]: 0.6089 | avg_logFC Ifrd1 [1]: 0.4765 | avg_logFC Igfbp1 [1]: 1.09 | avg_logFC Iigp1 [1]: 0.6431 | avg_logFC Il1r1 [1]: 1.189 | avg_logFC Insig2 [1]: 0.6081 | avg_logFC Itih2 [1]: 0.3927 | avg_logFC Itih3 [1]: 0.4042 | avg_logFC Jak1 [1]: 0.5437 | avg_logFC Jmjd1c [1]: 0.5963 | avg_logFC Kif5b [1]: 0.4522 | avg_logFC Klf6 [1]: 0.7067 | avg_logFC Krt8 [1]: 1.273 | avg_logFC Krt18 [1]: 1.227 | avg_logFC Lars2 [1]: 0.8143 | avg_logFC Lcn2 [1]: 0.3876 | avg_logFC Lmo4 [1]: 0.2962 | avg_logFC Lpin2 [1]: 0.5165 | avg_logFC Lrg1 [1]: 0.3324 | avg_logFC Lrrc58 [1]: 0.9396 | avg_logFC Lrrfip1 [1]: 0.4108 | avg_logFC Lyst [1]: 0.3717 | avg_logFC Mak16 [1]: 0.2897 | avg_logFC Malat1 [1]: 0.9854 | avg_logFC Map2k3 [1]: 0.415 | avg_logFC Map3k5 [1]: 0.3131 | avg_logFC Mat1a [1]: 0.3889 | avg_logFC Mat2a [1]: 0.4758 | avg_logFC Mcl1 [1]: 0.5249 | avg_logFC Mdn1 [1]: 0.3079 | avg_logFC Mfsd2a [1]: 0.461 | avg_logFC Mmp14 [1]: 0.2571 | avg_logFC Mpeg1 [1]: 0.4668 | avg_logFC Mrap [1]: 0.8615 | avg_logFC Mt1 [1]: 2.32 | avg_logFC Mt2 [1]: 2.038 | avg_logFC Mybbp1a [1]: 0.4018 | avg_logFC Myh9 [1]: 1.025 | avg_logFC Myl12a [1]: 0.4029 | avg_logFC Myo1e [1]: 0.5786 | avg_logFC Nars [1]: 0.3687 | avg_logFC Ncl [1]: 0.3882 | avg_logFC Neat1 [1]: 0.6554 | avg_logFC Nedd4l [1]: 0.2635 | avg_logFC Nolc1 [1]: 0.4445 | avg_logFC Nop58 [1]: 0.6343 | avg_logFC Pfkfb2 [1]: 0.2694 | avg_logFC Phc2 [1]: 0.299 | avg_logFC Picalm [1]: 0.6766 | avg_logFC Plec [1]: 0.4188 | avg_logFC Plin2 [1]: 1.454 | avg_logFC Plk3 [1]: 0.4158 | avg_logFC Plscr1 [1]: 0.4497 | avg_logFC Ppan [1]: 0.2767 | avg_logFC Ppl [1]: 0.8618 | avg_logFC Prrc2c [1]: 0.3906 | avg_logFC Ptp4a1 [1]: 0.2517 | avg_logFC Ptpn1 [1]: 0.3865 | avg_logFC Ptpn2 [1]: 0.271 | avg_logFC Ptpn12 [1]: 0.3093 | avg_logFC Pxk [1]: 0.2652 | avg_logFC Rad54l2 [1]: 0.3642 | avg_logFC Ranbp2 [1]: 0.5074 | avg_logFC Rcan1 [1]: 0.701 | avg_logFC Rell1 [1]: 0.5793 | avg_logFC Retsat [1]: 0.2918 | avg_logFC Rnd3 [1]: 0.3267 | avg_logFC Rock2 [1]: 0.5552 | avg_logFC Rora [1]: 0.541 | avg_logFC S100a8 [1]: 1.127 | avg_logFC S100a9 [1]: 1.342 | avg_logFC Sat1 [1]: 0.6887 | avg_logFC Sdad1 [1]: 0.2969 | avg_logFC Sdc4 [1]: 0.5673 | avg_logFC Sds [1]: 0.3515 | avg_logFC Serpina3m [1]: 0.7932 | avg_logFC Serpina3n [1]: 0.6641 | avg_logFC Slc10a2 [1]: 0.2704 | avg_logFC Slc16a6 [1]: 0.914 | avg_logFC Slc20a1 [1]: 0.326 | avg_logFC Slc39a14 [1]: 0.9161 | avg_logFC Smg1 [1]: 0.3045 | avg_logFC Son [1]: 0.4555 | avg_logFC Spred1 [1]: 0.352 | avg_logFC Sqstm1 [1]: 0.6992 | avg_logFC Srgn [1]: 0.9289 | avg_logFC Srxn1 [1]: 1.864 | avg_logFC St3gal1 [1]: 0.517 | avg_logFC St3gal5 [1]: 0.4358 | avg_logFC Stat3 [1]: 0.652 | avg_logFC Stk40 [1]: 0.493 | avg_logFC Stom [1]: 0.3 | avg_logFC Tacc2 [1]: 0.3128 | avg_logFC Tars [1]: 0.4718 | avg_logFC Tatdn2 [1]: 0.3248 | avg_logFC Tbc1d15 [1]: 0.4322 | avg_logFC Tcerg1 [1]: 0.3468 | avg_logFC Tiparp [1]: 0.5248 | avg_logFC Tjp2 [1]: 0.3961 | avg_logFC Tm4sf4 [1]: 0.4006 | avg_logFC Tmem87b [1]: 0.4054
